SMILES strings stand for the structures.

Data on 3 compounds can be found in ChEMBL document CHEMBL1128142, “2-aryl-indolyl maleimides - novel and potent inhibitors of protein kinase C” (Bioorg Med Chem Lett, 1995).

In one assay the test system is MCF7. As to the kind of experiment: Inhibition of adriamycin-resistant breast tumor line MCF-7/ADR-RE proliferation. The conditions noted are these: Homo sapiens. Format: functional.
In another assay the test system is MDA-N. As to the kind of experiment: Inhibition of breast tumor lines(MDA-N) proliferation. Format: functional. The conditions noted are these: Homo sapiens.
In assay [1] the target is T1, Protein kinase C epsilon type (Homo sapiens, UniProt Q02156).
T1 sequence (Q02156 whole entry): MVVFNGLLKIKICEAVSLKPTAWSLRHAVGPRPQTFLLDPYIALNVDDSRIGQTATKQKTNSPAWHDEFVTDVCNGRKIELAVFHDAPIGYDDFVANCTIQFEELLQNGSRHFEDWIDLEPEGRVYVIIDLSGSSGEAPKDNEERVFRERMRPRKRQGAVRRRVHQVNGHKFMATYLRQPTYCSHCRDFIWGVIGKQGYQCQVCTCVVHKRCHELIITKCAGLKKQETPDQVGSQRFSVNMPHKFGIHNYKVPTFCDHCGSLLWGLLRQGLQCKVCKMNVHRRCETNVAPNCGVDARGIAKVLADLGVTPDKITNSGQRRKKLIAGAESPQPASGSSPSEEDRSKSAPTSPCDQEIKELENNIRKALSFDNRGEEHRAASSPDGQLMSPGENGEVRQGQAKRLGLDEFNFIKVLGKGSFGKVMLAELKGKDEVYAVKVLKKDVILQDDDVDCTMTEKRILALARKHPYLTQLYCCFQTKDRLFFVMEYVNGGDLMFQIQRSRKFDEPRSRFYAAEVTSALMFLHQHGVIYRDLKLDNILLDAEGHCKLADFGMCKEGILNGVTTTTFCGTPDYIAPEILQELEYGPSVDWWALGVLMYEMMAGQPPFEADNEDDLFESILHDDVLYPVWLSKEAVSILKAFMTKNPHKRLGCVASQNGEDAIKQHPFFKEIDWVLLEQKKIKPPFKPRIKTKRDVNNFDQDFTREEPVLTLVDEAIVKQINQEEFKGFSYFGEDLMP
As to the kind of experiment: Inhibition of Protein kinase C epsilon.

Assay [2] addresses Protein kinase C beta type (Homo sapiens, UniProt P05771). As to the kind of experiment: Inhibition of protein kinase C beta.

Chain of Protein kinase C beta type (P05771 whole entry): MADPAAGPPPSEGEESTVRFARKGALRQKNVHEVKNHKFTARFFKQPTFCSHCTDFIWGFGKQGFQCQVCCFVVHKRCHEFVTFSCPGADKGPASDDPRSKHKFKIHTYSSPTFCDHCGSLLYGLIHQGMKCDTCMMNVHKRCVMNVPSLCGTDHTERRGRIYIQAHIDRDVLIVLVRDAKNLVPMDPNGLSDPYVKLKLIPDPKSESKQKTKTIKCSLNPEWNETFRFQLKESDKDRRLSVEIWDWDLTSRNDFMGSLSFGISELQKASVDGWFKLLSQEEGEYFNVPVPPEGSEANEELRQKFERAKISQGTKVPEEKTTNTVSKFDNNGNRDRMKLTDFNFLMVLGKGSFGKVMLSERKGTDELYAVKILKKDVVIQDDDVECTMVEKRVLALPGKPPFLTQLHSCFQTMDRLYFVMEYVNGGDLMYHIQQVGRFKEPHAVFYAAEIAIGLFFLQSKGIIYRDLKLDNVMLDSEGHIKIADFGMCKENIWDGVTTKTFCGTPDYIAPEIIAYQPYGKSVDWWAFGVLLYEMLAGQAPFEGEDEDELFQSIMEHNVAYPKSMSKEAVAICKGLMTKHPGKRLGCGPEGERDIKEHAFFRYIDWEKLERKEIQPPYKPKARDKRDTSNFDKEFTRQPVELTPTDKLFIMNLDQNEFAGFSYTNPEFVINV

The GI50 is the concentration that inhibits growth by half. Low readings indicate greater sensitivity of the cells, high ones lower sensitivity of the cells. The compound `N=C(N)SCCCn1cc(C2=CC(=O)NC2=O)c2ccccc21` gave a concentration for 50% growth inhibition (GI50) in the assay on MCF7 of 20 nM.

Broadly, the IC50 is the concentration that gives 50% inhibition. With `N=C(N)SCCCn1c(-c2cc3ccccc3s2)c(C2=CC(=O)NC2=O)c2ccccc21`, the figures for the concentration for 50% growth inhibition (GI50) in the assay with MDA-N and with MCF7 were less than 10 nM and 20 nM, respectively. The figures for the concentration for half-maximal inhibition (IC50) in assay [1] and in assay [2] were 10 nM and 3 nM, respectively.

`CN(C)CCCn1c(-c2cc3ccccc3s2)c(C2=CC(=O)NC2=O)c2ccccc21` returned a GI50 in the assay on MCF7 of 100 nM. This counts as sub-micromolar.
